Data as given in patent US20030143731A1, “Use of heterologous transcription factors in gene therapy” (ARIAD Gene Therapeutics, Inc., priority 1995, published 2003).

Assays:
[1] = Circulating half-life and concentration in mice; assay type: in vivo
Procedure: (§1) Rapamycin was formulated for in vivo administration by dissolution in equal parts of N,N-dimethylacetamide and a 9:1 (v:v) mixture of polyethylene glycol (average molecular weight of 400) and polyoxyethylene sorbitan monooleate. Concentrations of rapamycin, in the completed formulation, were sufficient to allow for in vivo administration of the appropriate dose in a 2.0 ml/kg injection volume. The accuracy of the dosing solutions was confirmed by HPLC analysis prior to intravenous administration into the tail veins. Some control mice, bearing no transfected HT1080 cells, received 10.0 mg/kg rapamycin. In addition, other control mice, bearing transfected cells, received only the rapamycin vehicle.
To examine the kinetics of rapamycin control of hGH production, we treated animals with a single dose of rapamycin and then measured hGH levels at different times thereafter. […] The slower decay of serum hGH relative to rapamycin could reflect the presence of higher tissue concentrations of rapamycin in the vicinity of the implanted cells. Alternatively, persistence of hGH production from the engineered cells may be enhanced by the stability of hGH mRNA.
Therefore, to ascertain the ability of this system to elevate and maintain circulating hGH concentrations, we performed an experiment in which animals received multiple doses of rapamycin at 16-hour intervals. This interval corresponds to the time required for hGH levels to peak and then decline approximately half-way. According to this regimen, rapamycin concentration is predicted to approach a steady-state trough concentration of 1.7 μg/ml after two doses. hGH levels should also approach a steady state trough concentration following the second dose. […] In particular, it is apparent that protein production is rapidly terminated upon withdrawal of drug.

[2] = test system: SEAP target gene in HT1080 cells; assay: Rapamycin-dependent transcriptional activation in transiently transfected cells (ZFHD1-3FKBP + 1FRB-p65 fusions, SEAP); assay type: cell-based, human
Procedure: SEAP production was not detected in cells in which one or both of the transcription factor fusion plasmids was omitted, nor was it detected in the absence of added rapamycin. When all components were present, however, SEAP secretion was detectable at rapamycin concentrations as low as 0.5 nM. […] Similar results have been obtained when the same transcription factors were used to drive rapamycin-dependent activation of an hGH reporter gene or a stably integrated version of the SEAP reporter gene made by infection with a retroviral vector. It is difficult to determine the fold activation in response to rapamycin since levels of SEAP secretion in the absence of drug are undetectable, but it is clear that in this system there is at least a 1000-fold enhancement over background levels in the absence of rapamycin.
HT1080 cells (ATCC CCL-121), derived from a human fibrosarcoma, were grown in MEM supplemented with non-essential amino acids and 10% Fetal Bovine Serum. Cells plated in 24-well dishes (Falcon, 6×10^4 cells/well) were transfected using Lipofectamine under conditions recommended by the manufacturer (GIBCO/BRL). A total of 300 ng of the following DNA was transfected into each well: 100 ng ZFHD×12-CMV-SEAP reporter gene, 2.5 ng pCGNN-ZFHD1-3FKBP or other DNA binding domain fusion, 5 ng pCGNN-1FRB-p65(361-550) or other activation domain fusion and 192.5 ng pUC118. In cases where the DNA binding domain or activation domain were omitted an equivalent amount of empty pCGNN expression vector was substituted. Following lipofection (for 5 hours) 500 μl medium containing the indicated amounts of rapamycin was added to each well. After 24 hours, medium was removed and assayed for SEAP activity as described (Spencer et al, Science 262:1019-24, 1993) using a Luminescence Spectrometer (Perkin Elmer) at 350 nm excitation and 450 nm emission. Background SEAP activity, measured from mock-transfected cells, was subtracted from each value.

[3] = test system: hGH reporter gene in transplanted transfected HT1080 cells; assay: Rapamycin-dependent production of hGH in mice bearing transfected HT1080 cells; assay type: in vivo
Procedure: To prepare transiently transfected HT1080 cells for injection into mice (See below), cells in 100 mm dishes (2×10^6 cells/dish) were transfected by calcium phosphate precipitation for 16 hours (Gatz, C., Kaiser, A. & Wendenburg, R. , 1991,Mol. Gen. Genet. 227, 229-237) with the following DNAs: […] of ZHWT×12-CMV-hGH, […] pCGNN-ZFHD1-3FKBP, […] pCGNN-1FRB-p65(361-550) and […] pUC118. Transfected cells were rinsed 2 times with phosphate buffered saline (PBS) and given fresh medium for 5 hours. To harvest for injection, cells were removed from the dish in Hepes Buffered Saline Solution containing 10 mM EDTA, washed with PBS/0.1% BSA/0.1% glucose and resuspended in the same at a concentration of 2×10^7 cells/ml.
In Vivo Methods: Animals, husbandry, and general procedures. Male nu/nu mice were obtained from Charles River Laboratories (Wilmington, Mass.) and allowed to acclimate for five days prior to experimentation. They were housed under sterile conditions, were allowed free access to sterile food and sterile water throughout the entire experiment, and were handled with sterile techniques throughout.
To transplant transiently transfected cells into mice, 2×10^6 transfected HT1080 cells, were suspended in […] PBS/0.1% BSA/0.1% glucose buffer, and administered into four intramuscular sites (approximately […] per site) on the haunches and flanks of the animals. Control mice received equivalent volume injections of buffer alone.
as §1
Blood was collected by either anesthetizing or sacrificing mice via CO2 inhalation. Anesthetized mice were used to collect […] of blood by cardiac puncture. The mice were revived and allowed to recover for subsequent blood collections. Sacrificed mice were immediately exsanguinated. Blood samples were allowed to clot for 24 hours, at 4° C., and sera were collected following centrifugation at 1000×g for 15 minutes. Serum hGH was measured by the Boehringer Mannheim non-isotopic sandwich ELISA (Cat No. 1 585 878). […] Absorbance was read at 405 nm with a 490 nm reference wavelength on a Molecular Devices microtiter plate reader. […]

[4] = test system: SEAP target gene in stably transfected HT1080 cells; assay: Rapamycin-dependent SEAP production in stably transfected cell clone; assay type: cell-based, human; settings: stable clone, 100 nM rapamycin, SEAP assay length increased about 50-fold
Excerpt: We generated stable cell lines by sequential transfection of a SEAP target gene and expression vectors for ZFHD1-3FKBP and 1FRB-p65, respectively. […] From this pool, we characterized several individual clones, many of which produced high levels of SEAP in response to rapamycin. […] In an attempt to rigorously quantitate background SEAP production and induction ratio in this clone, we performed a second set of assays in which the length of the SEAP assay was increased by a factor of approximately 50 to detect any SEAP activity in untreated cells. Under these conditions, mock transfected cells produced 47 arbitrary fluorescence units, while the transfected clone produced 54 units in the absence of rapamycin and over 90,000 units at 100 nM rapamycin. […]
To simplify the task of stable transfection, we used a bicistronic expression vector that directs the production of both ZFHD1-3FKBP and 1FRB-p65 through the use of an internal ribosome entry sequence (IRES). […] All 12 clones analyzed were inducible and had little or no basal activity. […]
HT20-6 cells, which contain the pLH-ZHWT×12-IL2-SEAP reporter gene, ZFHD1-3FKBP DNA binding domain and 1FRB-p65(361-550) activation domain stably integrated, were generated by first infecting HT1080L cells with SMTN-ZFHD1-3FKBP-packaged retrovirus and selecting in medium containing […] G418. […] Eight positive clones were analyzed by addition of rapamycin. […]

[5] = five i.v. 10.0 mg/kg doses at 16-hour intervals

| Molecule | half-life of hGH clearance from the circulation ([1]; in these animals (mice)) | enhancement of SEAP over background levels in the absence of rapamycin [2] [fold] | rapamycin concentration of peak SEAP secretion ([2]; 24 hours) [nM] | lowest rapamycin concentration at which SEAP secretion was detectable ([2]; all components present, 24 hours) [nM] | half-life of hGH decline after the final rapamycin dose [3, 5] [h] | time hGH levels remained constant after the final dose [3, 5] [h] | half-life of decay of serum hGH concentration from its peak ([3]; single i.v. dose 10.0 mg/kg) | time after treatment at which serum hGH remained detectable ([3]; single i.v. dose 10.0 mg/kg) [h] | SEAP production [4] | predicted steady-state trough concentration of rapamycin ([1]; after two doses, 10.0 mg/kg i.v. at 16-hour intervals) [µg/mL] | half-life ([1]; nu/nu, mouse, in vivo, iv, in these animals (mice), i.v., read-out: half-life of rapamycin (converted)) [min] |
| --- | --- | --- | --- | --- | --- | --- | --- | --- | --- | --- | --- |
| hGH: human growth hormone, reporter gene product secreted by engineered cells | less than four |  |  |  |  |  |  |  |  |  |  |
| CO[C@H]1C[C@@H]2CC[C@@H](C)[C@@](O)(O2)C(=O)C(=O)N2CCCC[C@H]2C(=O)O[C@H]([C@H](C)C[C@@H]2CC[C@@H](O)[C@H](OC)C2)CC(=O)[C@H](C)/C=C(\C)[C@@H](O)[C@@H](OC)C(=O)[C@H](C)C[C@H](C)/C=C/C=C/C=C/1C [rapamycin] |  | ≥ 1000 | 5 | 0.5 | 6.8 | 16 | approximately 11 hours | 42 | over 90,000 arbitrary fluorescence units | 1.7 | 276 |
